In the assay the test system is hrtAB promoter (HssRS activation; CgoX activation). Nature of the assay: XylE colorimetric reporter assay (phrt.xylE), activation of HssRS / hrtAB expression. It is filed as cell-based, Staphylococcus aureus strain Newman. To be noted: for Specifc Activity @ 30 μM: 30 μM compound, XylE activity normalized to protein; for Specifc Activity @ 30 μM / Specifc Activity (nMol/min*mg), data collected at 10 uM: 6 h subculture; for Specifc Activity (nMol/min*mg), data collected at 10 uM: footnote a: data collected at 10 uM; for XylE activity in comparison to '8882 at 10 μM: six-hour exposure (FIG. 2A); for XylE activity in comparison to '8882 at 30 μM: six-hour exposure (FIG. 2B); for EC50: Staphylococcus aureus, NEWMAN; for XylE activity (ability to activate HssRS) in comparison to '8882: dose not stated. The method, then:
To maximize the production of coproporphyrin III and thereby increase blue-light mediated killing of S. aureus, synthesized analogs of VU0038882 were tested. To determine the relative efficacy of each analog, a Newman strain of S. aureus, transformed with the phrt.xylE (11) reporter vector was used. This reporter allows for colorimetric assessment of intracellular heme production. To perform the assay, each individual analog was added to 3 mL of TSB+10 μg/mL chloramphenicol to reach a concentration of 30 μM, and then 700 μL of this newly made 30 μM solution was added to 1.3 mL of remaining TSB+10 μg/mL chloramphenicol media to create the 10 μM concentration. Either 10 μM or 30 μM concentrations of compounds in medium were then aliquoted into three 0.5 mL replicate tubes. Three separate 16- to 18-hour overnight subcultures from isolated colonies were back-diluted 1:100 into the tubes creating three biological replicates and were subcultured for 6 hours at 37° C. and 180 rpm. After incubation, the cells were pelleted at 16,400 g for 5 minutes and the supernatant aspirated before washing with 0.5 mL of 20 mM potassium phosphate wash buffer. After pelleting the cells again at 16,400 g for 5 minutes the wash buffer was aspirated, and the pellets were stored at −80° C. until further use.
When the cells were ready to be lysed and data collected, samples were removed from the −80° C. freezer, allowed to thaw, and resuspended in 150 μL of lysis buffer (100 mM potassium phosphate pH=8.0, 10% v/v acetone, 20 μg/mL lysostaphin) before incubation in a 37° C. bead bath for 20 minutes and then cooled for 5 minutes on ice. The samples were then centrifuged at 16,400 g and 4° C. for 30 minutes to separate the pellet from the lysate, which was then placed into a 96-well microtiter plate and kept on ice. The lysate from each sample was pipetted into 20 μL aliquots on a round-bottom or flat-bottom 96-well plate on ice. The round bottom plate was labeled for bicinchoninic acid assay (BCA) protein content analysis, and 10 μL of BCA standards was added to extra wells on the plate. Protein quantification was performed using a Pierce BCA Protein Assay Kit as per the manufacturer's instructions. While the BCA plate was in the incubator, the flat-bottom plate was prepared by thawing 1 M catechol on ice and making 100 mM potassium phosphate (pH=8.0) assay buffer. After preparing a kinetic read at 375 nm for 10 minutes with a minimal interval between reads, the catechol was diluted 1:1,000 into the assay buffer and quickly dispensed into a sterile basin, then 200 μL of the solution was pipetted into each well using a multichannel pipette. All data were exported into Excel software (Microsoft) and analyzed for specific activity of each compound and activity relative to VU0038882 controls.
After 219 analogs had been screened, the compounds with the best percent VU0038882 activity were tested again following the same protocol, but with twelve replicates per concentration with data expressed as averages ±the standard deviation (SD). Additionally, the top-performing compounds were tested using the XylE protocol with a concentration gradient to determine their half maximal effective concentration (EC50) values.
Photosensitizer-conjugated antibodies expose bacteria to reactive oxygen species (ROS) externally, but this treatment can be paired with small molecule treatment to generate ROS internally via heme biosynthesis pathway intermediates. To discover new compounds capable of activating CgoX and/or displaying less toxicity to eukaryotic cells, a medicinal chemistry campaign was initatied based on systematic alternation of the '8882 structure. Each new analog was tested for the ability to activate HssRS using the previously described XylE colorimetric assay that employs a reporter construct in which the hrtAB promoter is fused to a xylE reporter gene. […]
For orientation: Reporter assays use an easily measured gene product as a stand-in for the process of interest.

SMILES strings stand for the structures. Like-named read-outs stand apart in the source and are kept apart here.

Regarding `Cc1ccc(-c2cc(-c3ccc4ccccc4c3O)n[nH]2)o1` ['9624, 2-(5-(5-Methylfuran-2-yl)-1H-pyrazol-3-yl)naphthalen-1-ol], the “Specifc Activity @ 30 μM” value came to 1.152 ± 0.382 nmol/min/mg.

For the molecule `Cc1c(-c2ccccc2O)n[nH]c1-c1ccco1` [Compound 0394, 2-(5-(Furan-2-yl)-4-methyl-1H-pyrazol-3-yl)phenol], the “Specifc Activity @ 30 μM” value worked out at 0.0287 ± 0.0198 nmol/min/mg.

In the case of `Oc1c(-c2cc(-c3cnco3)[nH]n2)ccc2ccccc12` [′0071, 2-(5-(Oxazol-5-yl)-1H-pyrazol-3-yl)naphthalen-1-ol], the “Specifc Activity (nMol/min*mg), data collected at 10 uM” value (from here on “Specifc Activity (nMol/min*mg)”) is 1.152 ± 0.263^a nMol/min*mg.

For `CC(C)Nc1cc(-c2ccc3ccccc3c2O)n[nH]1` [′0457, 2-(5-(isopropylamino)-1H-pyrazol-3-yl)naphthalen-1-ol], the “Specifc Activity @ 30 μM” value is 0.5082 ± 0.770 nmol/min/mg.

For `Oc1c(-c2n[nH]c(-c3ccco3)n2)ccc2ccccc12` [′0485, 2-(5-(Furan-2-yl)-1H-1,2,4-triazol-3-yl)naphthalen-1-ol], the “Specifc Activity @ 30 μM” value stood at 1.697 ± 0.335 nmol/min/mg.

On to `Oc1c(-c2nnc(-c3ccco3)o2)ccc2ccccc12` [′0527, 2-(5-(furan-2-yl)-1,3,4-oxadiazol-2-yl)naphthalen-1-ol], for which the “Specifc Activity @ 30 μM” value was 0.2270 ± 0.0147 nmol/min/mg.

For `Oc1c(-c2n[nH]c3c2CCc2ccoc2-3)ccc2ccccc12` [′1790, 2-(4,5-Dihydro-2H-furo[3,2-g]indazol-3-yl)naphthalen-1-ol], the “Specifc Activity @ 30 μM” value is 4.146 ± 2.397 nmol/min/mg.

For `Cc1nn(C)c(C)c1-c1cc(-c2ccc3ccccc3c2O)n[nH]1` [′2069, 2-(1′,3′,5′-trimethyl-1′H,2H-[3,4′-bipyrazol]-5-yl)naphthalen-1-ol], the “XylE activity in comparison to '8882 at 10 μM” value (“XylE activity … at 10 μM” for short) was “weaker activity compared to '8882”, the “Specifc Activity @ 30 μM” value amounted to 10.46 ± 1.54 nmol/min/mg, the “XylE activity in comparison to '8882 at 30 μM” value (shortened to “XylE activity … at 30 μM”) was “equivalent” and the EC50 stood at 28.5 µM. Under “read-out: logEC50 (converted)”, the EC50 was 28.5 µM.

As for `Oc1cc2ccccc2cc1-c1cc(-c2ccco2)[nH]n1` [′3918, 3-(5-(Furan-2-yl)-1H-pyrazol-3-yl)naphthalen-2-ol], the “Specifc Activity @ 30 μM” value amounted to 0.2543 ± 0.127 nmol/min/mg.

`Nc1ncccc1-c1cc(-c2ccco2)[nH]n1` [′3989, 3-(5-(Furan-2-yl)-1H-pyrazol-3-yl)pyridin-2-amine]: the “Specifc Activity @ 30 μM” value was 0.2491 ± 0.2546 nmol/min/mg.

Regarding `Oc1ccc(F)cc1-c1cc(-c2ccco2)[nH]n1` [′4082, 4-Fluoro-2-(5-(furan-2-yl)-1H-pyrazol-3-yl)phenol], the “Specifc Activity @ 30 μM” value turned out to be 5.884 ± 1.88 nmol/min/mg.

With `Oc1cc(F)ccc1-c1cc(-c2ccco2)[nH]n1` [′4083, 5-Fluoro-2-(5-(furan-2-yl)-1H-pyrazol-3-yl)phenol], the “XylE activity … at 10 μM” value was “activity similar to '8882”, the “Specifc Activity @ 30 μM” value came to 28.76 ± 9.41 nmol/min/mg, the “XylE activity … at 30 μM” value is listed as “activity similar to '8882” and the EC50 is 20.9 µM. Further, the EC50 (read-out: logEC50 (converted)) is 20.9 µM.

As for `Cn1ccc(-c2cc(-c3ccc4ccccc4c3O)n[nH]2)n1` [′6699, 2-(1-Methyl-1H,2′H-[3,3′-bipyrazol]-5′-yl)naphthalen-1-ol], the “Specifc Activity @ 30 μM” value came to 5.138 ± 4.82 nmol/min/mg.

For `Cn1ncc2cc(-c3cc(-c4ccc5ccccc5c4O)n[nH]3)ccc21` [′6700, 2-(5-(1-methyl-1H-indazol-5-yl)-1H-pyrazol-3-yl)naphthalen-1-ol], the “Specifc Activity @ 30 μM” value was 24.26 ± 3.69 nmol/min/mg, the EC50 is 8.18 µM and the “XylE activity (ability to activate HssRS) in comparison to '8882” value is on record as “roughly equivalent to '8882”. Moreover, the EC50 (read-out: logEC50 (converted)) is 8.18 µM.

`c1ccc(-c2cc(-c3ccco3)[nH]n2)nc1` [′7092, 2-(5-(Furan-2-yl)-1H-pyrazol-3-yl)pyridine]: the “Specifc Activity @ 30 μM” value was 0.2374 ± 0.1354 nmol/min/mg.

On to `Oc1ncccc1-c1cc(-c2ccco2)[nH]n1` [′7268, 3-(5-(Furan-2-yl)-1H-pyrazol-3-yl)pyridin-2-ol], for which the “Specifc Activity @ 30 μM” value was 0.4793 ± 1.2179 nmol/min/mg.

Regarding `Cn1nccc1-c1cc(-c2ccc3ccccc3c2O)n[nH]1` [′8233, 2-(2′-Methyl-2H,2′H-[3,3′-bipyrazol]-5-yl)naphthalen-1-ol], the “Specifc Activity @ 30 μM” value stood at 0.5053 ± 0.294 nmol/min/mg.

Consider `C#Cc1cc(-c2ccc3ccccc3c2O)n[nH]1` [′9128, 2-(5-Ethynyl-1H-pyrazol-3-yl)naphthalen-1-ol], for which the “Specifc Activity (nMol/min*mg)” value is recorded as 0.442 ± 0.089^a nMol/min*mg.

For the molecule `Oc1c(-c2cc(-c3cc4ccccc4s3)[nH]n2)ccc2ccccc12` [′9130, 2-(5-(Benzo[b]thiophen-2-yl)-1H-pyrazol-3-yl)naphthalen-1-ol], the “Specifc Activity @ 30 μM” value came to 1.012 ± 0.064 nmol/min/mg.

In the case of `Oc1c(-c2cc(-c3ccncc3)[nH]n2)ccc2ccccc12` [′9131], the “Specifc Activity @ 30 μM” value was 0.437 ± 0.26 nmol/min/mg.

With `Oc1c(-c2cc(-c3ccsc3)[nH]n2)ccc2ccccc12` [′9132, 2-(5-(thiophen-3-yl)-1H-pyrazol-3-yl)naphthalen-1-ol], the “Specifc Activity @ 30 μM” value was 12.82 ± 1.12 nmol/min/mg, the EC50 was found to be 26.2 µM and the “XylE activity (ability to activate HssRS) in comparison to '8882” value is “lost some activity compared with '8882”. In addition, the EC50 (read-out: logEC50 (converted)) is 26.2 µM.

As for `Oc1c(-c2cc(-c3cc4ccccc4o3)[nH]n2)ccc2ccccc12` [′9134, 2-(5-(Benzofuran-2-yl)-1H-pyrazol-3-yl)naphthalen-1-ol], the “Specifc Activity @ 30 μM” value is 0.130 ± 0.142 nmol/min/mg.

`Oc1c(-c2cc(C3CCCO3)[nH]n2)ccc2ccccc12` (stereo not shown) [′9437, 2-(5-(tetrahydrofuran-2-yl)-1H-pyrazol-3-yl)naphthalen-1-ol]: the “Specifc Activity @ 30 μM” value worked out at 0.088 ± 0.041 nmol/min/mg.

With `Cc1ccc(-c2cc(-c3ccc4ccccc4c3O)n[nH]2)s1` [′9625, 2-(5-(5-Methylthiophen-2-yl)-1H-pyrazol-3-yl)naphthalen-1-ol], the “Specifc Activity @ 30 μM” value is 8.023 ± 1.065 nmol/min/mg and the EC50 came to 13.1 µM. Also, the EC50 (read-out: logEC50 (converted)) was 13.1 µM.

For `Oc1c(-c2cc(-c3cccs3)[nH]n2)ccc2ccccc12` [′9626, 2-(5-(Thiophen-2-yl)-1H-pyrazol-3-yl)naphthalen-1-ol], the “XylE activity … at 10 μM” value is given as “performed well”, the “Specifc Activity @ 30 μM” value stood at 28.86 ± 2.66 nmol/min/mg, the “XylE activity … at 30 μM” value is on record as “comparable to '8882” and the EC50 was determined as 19.9 µM. The EC50 (read-out: logEC50 (converted)) is 19.9 µM.

With `Cc1csc(-c2cc(-c3ccc4ccccc4c3O)n[nH]2)c1` [′9627, 2-(5-(4-Methylthiophen-2-yl)-1H-pyrazol-3-yl)naphthalen-1-ol], the “Specifc Activity @ 30 μM” value was 10.15 ± 3.65 nmol/min/mg.

On to `Cc1cnccc1-c1cc(-c2ccc3ccccc3c2O)n[nH]1` [′9767, 2-(5-(3-Methylpyridin-4-yl)-1H-pyrazol-3-yl)naphthalen-1-ol], for which the “Specifc Activity (nMol/min*mg)” value is reported as 1.393 ± 0.392^a nMol/min*mg.

For `C/C=C/c1cc(-c2ccc3ccccc3c2O)n[nH]1` [′9768, (E)-2-(5-(Prop-1-en-1-yl)-1H-pyrazol-3-yl)naphthalen-1-ol], the “Specifc Activity @ 30 μM” value was found to be 6.951 ± 0.983 nmol/min/mg.

Consider `Cc1sccc1-c1cc(-c2ccc3ccccc3c2O)n[nH]1` [′9769, 2-(5-(2-Methylthiophen-3-yl)-1H-pyrazol-3-yl)naphthalen-1-ol], for which the “Specifc Activity @ 30 μM” value turned out to be 4.922 ± 1.261 nmol/min/mg.

The values are drawn from patent US20240131356A1, “COMBINATION OF INTRACELLULAR AND EXTRACELLULAR PHOTOSENSITIZERS FOR TREATMENT OF BACTERIAL INFECTION” (priority 2021, published 2024).
